Among the test systems are MDA-MB-231 breast; HL-60(TB) leukemia; SR leukemia; OVCAR-4 ovarian; ACHN renal; IGROV1 ovarian; SF-539 CNS; SK-OV-3 ovarian; COLO 205 colon; T-47D breast.
Common to all, as to assay: NCI-60 cell line screen, 48 h

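Method: 48-hour compound exposure of cells in 96-well plates, five concentrations, linear interpolation of endpoints. GI50 = concentration required for 50% inhibition of growth. TGI: total growth inhibition.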

`Cc1cccc2c3c(sc12)C(c1ccc(F)cc1)C(C#N)=C(N)O3` (configuration not stated): the GI50 in the experiment with MDA-MB-231 breast was 0.346 µM; in the experiment with HL-60(TB) leukemia, 0.0389 µM; in the experiment with SR leukemia it was 0.0462 µM; in the experiment with OVCAR-4 ovarian, 0.528 µM; in the experiment with ACHN renal it was 0.0658 µM; with IGROV1 ovarian, 0.0744 µM. Also, the values for the GI50 in the experiment with SF-539 CNS, in the experiment with SK-OV-3 ovarian and with COLO 205 colon were 0.0473 µM, 1.35 µM and 0.28 µM, respectively. Moreover, the TGI was determined as 8.4 µM with MDA-MB-231 breast; 0.731 µM in the experiment with HL-60(TB) leukemia; 20.2 µM in the experiment on SR leukemia; 17.1 µM in the experiment with OVCAR-4 ovarian; 13.2 µM with ACHN renal; 11.2 µM with IGROV1 ovarian. In addition, the results for the TGI in the experiment with SF-539 CNS, in the experiment with SK-OV-3 ovarian and in the experiment with COLO 205 colon were 0.679 µM, 27.8 µM and 1.29 µM, respectively.

Consider `O=c1c2cc3c(cc2c2cccc4c2n1CCC4)OCO3`, for which the TGI was greater than 100 µM with HL-60(TB) leukemia; 91.3 µM in the experiment on SR leukemia; greater than 100 µM with OVCAR-4 ovarian; greater than 100 µM in the experiment with ACHN renal; greater than 100 µM with IGROV1 ovarian; greater than 100 µM with SF-539 CNS. In addition, the TGI with SK-OV-3 ovarian and in the experiment with COLO 205 colon was greater than 100 µM in each case.

For `Cc1c2c(c(C)c3c1[nH]c1ccccc13)CN(C)CC2`, the TGI was greater than 100 µM with HL-60(TB) leukemia; 87.8 µM with SR leukemia; greater than 100 µM with OVCAR-4 ovarian; 35.7 µM in the experiment on ACHN renal; greater than 100 µM with IGROV1 ovarian; 27.6 µM in the experiment with SF-539 CNS. For the same molecule, the TGI with SK-OV-3 ovarian was 70.1 µM; in the experiment with COLO 205 colon, 28.6 µM.

Turning to `COC(=O)Cc1cc(=O)[nH]c2c1C(=O)CCC2`, the TGI in the experiment on HL-60(TB) leukemia, in the experiment with SR leukemia, in the experiment on ACHN renal, in the experiment on IGROV1 ovarian, in the experiment with SF-539 CNS and with SK-OV-3 ovarian was greater than 100 µM throughout.

`NC(=O)NC1C(C(=O)O)N(Cc2ccccc2)C(=O)N1Cc1ccccc1` (configuration not stated): the TGI in the experiment on HL-60(TB) leukemia, with SR leukemia, with OVCAR-4 ovarian, in the experiment on ACHN renal, in the experiment with IGROV1 ovarian and in the experiment on SF-539 CNS was greater than 100 µM in each case. The TGI with SK-OV-3 ovarian and in the experiment with COLO 205 colon was greater than 100 µM throughout.

As for `OCCN(CCO)c1cccc(N(CCO)CCO)n1`, the TGI in the experiment on HL-60(TB) leukemia, with SR leukemia, with OVCAR-4 ovarian, in the experiment with ACHN renal, in the experiment on SK-OV-3 ovarian and in the experiment on COLO 205 colon was greater than 100 µM each time.

As to `COc1ccc(C(=O)C#Cc2c[nH]c(=O)[nH]c2=O)cc1`, the TGI is 23.3 µM with HL-60(TB) leukemia; 8.38 µM with SR leukemia; 33.1 µM with OVCAR-4 ovarian; 30.5 µM with ACHN renal; greater than 62.9 µM in the experiment with IGROV1 ovarian; 19.3 µM with SF-539 CNS. The figures for the TGI in the experiment on SK-OV-3 ovarian and in the experiment on COLO 205 colon were greater than 100 µM and 24.8 µM, respectively.

Turning to `CCC1(CN(C)C)CC/C(=C\c2ccc(OC)c(OC)c2)C1=O` (configuration not stated), the TGI in the experiment with HL-60(TB) leukemia, in the experiment with OVCAR-4 ovarian, with ACHN renal, with IGROV1 ovarian, in the experiment with SF-539 CNS and with SK-OV-3 ovarian was greater than 100 µM throughout. In the experiment on COLO 205 colon, this molecule returned a TGI greater than 100 µM.

Take `Cl.Fc1c[c-]c(-c2ccccn2)c(F)c1.[Pt].c1ccc([PH+](C[PH+](c2ccccc2)c2ccccc2)c2ccccc2)cc1`: the GI50 is 0.233 µM in the experiment with HL-60(TB) leukemia; 0.267 µM with OVCAR-4 ovarian; 0.135 µM with T-47D breast; 0.218 µM with ACHN renal; 0.244 µM in the experiment on SF-539 CNS; 0.293 µM in the experiment with SK-OV-3 ovarian. For the same molecule, the TGI in the experiment with HL-60(TB) leukemia came to 0.67 µM; with OVCAR-4 ovarian, 0.927 µM; with T-47D breast, 1.02 µM; in the experiment with ACHN renal, 0.463 µM; in the experiment with SF-539 CNS, 0.677 µM; in the experiment on SK-OV-3 ovarian, 0.84 µM.

For the molecule `COc1c(N2CCN(CN3C(=O)C(=O)c4cc(Cl)ccc43)C(C)C2)c(F)cc2c(=O)c(C(=O)O)cn(C3CC3)c12` (configuration not stated), the GI50 is 27.3 µM with MDA-MB-231 breast; 7.29 µM with HL-60(TB) leukemia; 4.51 µM with SR leukemia; 55.5 µM in the experiment with OVCAR-4 ovarian; 32.1 µM in the experiment on ACHN renal; greater than 100 µM with IGROV1 ovarian. Also, the GI50 in the experiment on SF-539 CNS was greater than 100 µM; with COLO 205 colon, 80.6 µM. Besides, the TGI in the experiment with MDA-MB-231 breast, in the experiment on HL-60(TB) leukemia, in the experiment with SR leukemia, in the experiment with OVCAR-4 ovarian, with ACHN renal and with IGROV1 ovarian was greater than 100 µM in each case. Further, the TGI in the experiment with SF-539 CNS and in the experiment with COLO 205 colon was greater than 100 µM each time.

With `O=C1CCCCC12CCC/C2=N\O` (configuration not stated), the TGI in the experiment with HL-60(TB) leukemia, in the experiment with SR leukemia, in the experiment on OVCAR-4 ovarian, in the experiment with ACHN renal, in the experiment with IGROV1 ovarian and with SF-539 CNS was greater than 100 µM each time. Further, the TGI in the experiment with SK-OV-3 ovarian and in the experiment on COLO 205 colon was greater than 100 µM in each case.

Turning to `O=C(NCCCl)SCCO`, the TGI with HL-60(TB) leukemia, with SR leukemia, in the experiment on OVCAR-4 ovarian, in the experiment with ACHN renal, with IGROV1 ovarian and with SF-539 CNS was greater than 100 µM each time. The TGI in the experiment with SK-OV-3 ovarian and with COLO 205 colon was greater than 100 µM throughout.

In the case of `C=Cn1c([N+](=O)[O-])cnc1/C=C/c1ccc(C(=O)OCCN2CCOCC2)cc1`, the TGI with MDA-MB-231 breast, in the experiment with OVCAR-4 ovarian, with T-47D breast, in the experiment with ACHN renal, in the experiment with IGROV1 ovarian and with SF-539 CNS was greater than 100 µM each time. Also, the TGI in the experiment on SK-OV-3 ovarian and in the experiment on COLO 205 colon was greater than 100 µM each time.

With `CN(CCC(=O)/C(=C\c1ccccc1)c1ccc(Cl)cc1)Cc1ccccc1`, the GI50 in the experiment with HL-60(TB) leukemia was 5.95 µM; in the experiment with SR leukemia, 0.521 µM; with OVCAR-4 ovarian it was 3.15 µM; in the experiment with T-47D breast it was 2.5 µM; with ACHN renal, 2.25 µM; in the experiment on SF-539 CNS, 2.74 µM. For the same molecule, the results for the GI50 in the experiment with SK-OV-3 ovarian and in the experiment on COLO 205 colon were 12.7 µM and 2.75 µM, respectively. In addition, the TGI in the experiment on HL-60(TB) leukemia is 34.5 µM; in the experiment with SR leukemia, 5.81 µM; in the experiment on OVCAR-4 ovarian it was 12.7 µM; in the experiment with T-47D breast, 9.01 µM; in the experiment on ACHN renal, 5.46 µM; in the experiment with SF-539 CNS, 6.88 µM. Besides, the TGI in the experiment with SK-OV-3 ovarian was 26.4 µM; in the experiment on COLO 205 colon it was 7.24 µM.
